Laboratory results reported in ChEMBL document CHEMBL1250423, “Terpioside B, a difucosyl GSL from the marine sponge Terpios sp. is a potent inhibitor of NO release” (Bioorg Med Chem, 2010).
Activity calls are given as the source filed them. The calls are words filed in the database; no cut-off is given here.

Target: T1, Nitric oxide synthase, inducible (Mus musculus) (UniProt P29477)
T1 sequence (whole entry): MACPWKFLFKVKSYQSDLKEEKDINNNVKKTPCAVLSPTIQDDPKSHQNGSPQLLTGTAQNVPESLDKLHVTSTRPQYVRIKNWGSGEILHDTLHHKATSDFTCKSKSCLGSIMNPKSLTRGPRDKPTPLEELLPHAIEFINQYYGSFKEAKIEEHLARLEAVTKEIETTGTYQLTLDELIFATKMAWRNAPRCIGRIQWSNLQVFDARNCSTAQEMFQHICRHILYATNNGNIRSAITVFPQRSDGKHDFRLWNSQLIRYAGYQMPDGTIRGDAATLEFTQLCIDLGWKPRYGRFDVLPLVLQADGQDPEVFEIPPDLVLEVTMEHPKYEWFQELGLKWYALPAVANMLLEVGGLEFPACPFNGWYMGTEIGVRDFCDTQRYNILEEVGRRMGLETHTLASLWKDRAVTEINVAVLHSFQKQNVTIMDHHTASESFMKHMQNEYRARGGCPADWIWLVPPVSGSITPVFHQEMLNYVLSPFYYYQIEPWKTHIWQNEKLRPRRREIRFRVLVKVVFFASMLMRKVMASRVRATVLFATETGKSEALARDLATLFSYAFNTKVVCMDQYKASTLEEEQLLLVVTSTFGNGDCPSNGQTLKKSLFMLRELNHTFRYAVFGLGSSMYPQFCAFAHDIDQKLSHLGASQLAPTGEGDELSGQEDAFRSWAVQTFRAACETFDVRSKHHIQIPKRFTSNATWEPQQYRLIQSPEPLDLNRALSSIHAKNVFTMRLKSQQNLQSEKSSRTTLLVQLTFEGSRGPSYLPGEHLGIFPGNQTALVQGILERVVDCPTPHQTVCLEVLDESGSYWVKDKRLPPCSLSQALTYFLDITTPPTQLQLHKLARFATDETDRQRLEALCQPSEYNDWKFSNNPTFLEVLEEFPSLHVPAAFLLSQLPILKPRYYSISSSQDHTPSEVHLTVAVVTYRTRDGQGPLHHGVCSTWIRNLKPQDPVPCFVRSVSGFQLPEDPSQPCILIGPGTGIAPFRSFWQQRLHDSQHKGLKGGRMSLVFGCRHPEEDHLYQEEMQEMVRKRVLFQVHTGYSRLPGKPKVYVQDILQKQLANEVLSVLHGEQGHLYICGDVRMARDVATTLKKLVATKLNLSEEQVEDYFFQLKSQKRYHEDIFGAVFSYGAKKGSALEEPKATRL
Test: Inhibition of iNOS in mouse J774.2 cells assessed as reduction of LPS-induced nitric oxide production at 1 to 10 uM after 24 hrs by Griess reaction
Format: cell-based

inhibition: Active
SMILES: CCCCCCCCCCCCCCCCCCCCCC[C@@H](O)C(=O)N[C@@H](CO[C@@H]1O[C@H](CO)[C@@H](O)[C@H](O[C@@H]2O[C@H]([C@H](C)O)[C@@H](O)[C@@H]2O)[C@H]1O)[C@H](O)[C@H](O)CCCCCCCCCCCC(C)CC (stereo partly specified)
